Key:
Assay type in all cases: in vivo
[1] = tested on: Spodoptera eridania; assay: Southern armyworm (Spodoptera eridania) 2nd instar larvae, sprayed lima bean plant test; conditions: 96 h, 4 days after treatment, read-out: mortality in comparison with untreated controls
Method: B.4. Southern armyworm (Spodoptera eridania), 2nd instar larvae
(§1) The active compounds were formulated in cyclohexanone as a 10,000 ppm solution supplied in tubes. The tubes were inserted into an automated electrostatic sprayer equipped with an atomizing nozzle and they served as stock solutions for which lower dilutions were made in 50% acetone:50% water (v/v). A nonionic surfactant (Kinetic®) was included in the solution at a volume of 0.01% (v/v).
Lima bean plants (variety Sieva) were grown 2 plants to a pot and selected for treatment at the 1st true leaf stage. Test solutions were sprayed onto the foliage by an automated electrostatic plant sprayer equipped with an atomizing spray nozzle. The plants were dried in the sprayer fume hood and then removed from the sprayer. Each pot was placed into perforated plastic bags with a zip closure. About 10 to 11 armyworm larvae were placed into the bag and the bags zipped closed. Test plants were maintained in a growth room at about 25° C. and about 20-40% relative humidity for 4 days, avoiding direct exposure to fluorescent light (24 hour photoperiod) to prevent trapping of heat inside the bags. Mortality and reduced feeding were assessed 4 days after treatment, compared to untreated control plants.

[2] = tested on: Bemisia argentifolii; assay: Silverleaf whitefly (Bemisia argentifolii) adults, sprayed cotton plant test; conditions: 72 h, 3 days after treatment, read-out: mortality in comparison with untreated controls
Description: B.3 Silverleaf whitefly (Bemisia argentifolii) (adults)
as §1, with “non-ionic” for “nonionic”
Cotton plants at the cotyledon stage (one plant per pot) were sprayed by an automated electrostatic plant sprayer equipped with an atomizing spray nozzle. The plants were dried in the sprayer fume hood and then removed from the sprayer. Each pot was placed into a plastic cup and about 10 to 12 whitefly adults (approximately 3-5 days old) were introduced. The insects were collected using an aspirator and a nontoxic Tygon® tubing connected to a barrier pipette tip. The tip, containing the collected insects, was then gently inserted into the soil containing the treated plant, allowing insects to crawl out of the tip to reach the foliage for feeding. Cups were covered with a reusable screened lid. […] Mortality was assessed 3 days after treatment, compared to untreated control plants.

[3] = tested on: Anthonomus grandis; assay: Boll weevil (Anthonomus grandis) microtiter plate diet test, egg and larval mortality; conditions: 120 h, egg and larval mortality after 5 days, read-out: mortality in comparison with untreated controls
Method: B.1. Boll weevil (Anthonomus grandis)
For evaluating control of boll weevil (Anthonomus grandis) the test unit consisted of 96-wellmicrotiter plates containing an insect diet and 5-10 A. grandis eggs.
The compounds were formulated using a solution containing 75% v/v water and 25% v/v DMSO. Different concentrations of formulated compounds were sprayed onto the insect diet at 5 μl, using a custom-built micro atomizer, at two replications.
After application, microtiter plates were incubated at about 25+1° C. and about 75+5% relative humidity for 5 days. Egg and larval mortality was then visually assessed.

[4] = tested on: Plutella xylostella; assay: Diamond back moth (Plutella xylostella) cabbage leaf dip test, larval mortality; conditions: foliar, 3rd instar larvae, 72 hours after treatment, read-out: mortality in comparison with untreated controls
Method: B.2. Diamond back moth (Plutella xylostella)
The active compound is dissolved at the desired concentration in a mixture of 1:1 (vol:vol) distilled water: acetone. Surfactant (Alkamuls® EL 620) is added at a rate of 0.1% (vol/vol). The test solution is prepared at the day of use.
Leaves of cabbage were dipped in test solution and air-dried. Treated leaves were placed in petri dish enlined with moist filter paper and inoculated with ten 3rd instar larvae. Mortality was recorded 72 hours after treatment. Feeding damages were also recorded using a scale of 0-100%.

CO/N=C(\C)CC1CSc2n(C)c(=O)c(-c3ccccc3)c([O-])[n+]21 (stereo not shown) [C-1, 3-[(2E)-2-methoxyiminopropyl]-8-methyl-7-oxo-6-phenyl-2,3-dihydrothiazolo[3,2-a]pyrimidin-4-ium-5-olate]
> 75%: mortality at 500 ppm [1] | mortality at 500 ppm [2] | mortality at 800 ppm [3] | mortality at 500 ppm [4]
